# PMC9574050, “Design, synthesis, and insecticidal activity of a novel series of flupyrimin analogs bearing 1-aryl-1H-pyrazol-4-yl subunits” (Frontiers in Chemistry, 2022)
# Several values for one entry are separate records, joined by “and”; a condition that tells them apart may be missing. Equal values may be shown once. Read-outs that look alike come from different tables or passages of the source.
# Legend:
# Assay type in all cases: in vivo
# Aphis craccivora = assay: Insecticidal activity against Aphis craccivora (Potter spray tower); conditions: read-out: Mortality rate (%) A. craccivora
# Protocol: (§1) Preparation of test agent. Dissolve accurately weighed tested compound in DMF to prepare 1% mother liquor, and then dilute it with distilled water containing 0.1% Tween-80 to corresponding concentrations for later use.
# Insecticidal activity against Aphis craccivora ([Liu et al., 2022]). About 30 nymphs of alfalfa aphid were placed on a horsebean leaf dish, and then 2.5 ml of the tested agent was sprayed with Potter spray tower. After treatment, they were cultured in an observation room at 20–22°C. The result was counted 24 h later, and the no-response insect body when it was lightly touched with tweezers was regarded as dead. Each treatment was repeated three times, and DMF without the tested compound was used as a blank control.
# (§2) The insecticidal activities of the test compounds against the abovementioned five insects were calculated by the following formula: P1=(K/N)×100, (1) P2=(Pt−P0)/(1−P0)×100, (2) where P1 is the mortality rate; K is the dead insect number; N is the total number of experimental insects; P2 is the corrected mortality rate; Pt is the mortality rate of treatment; P0 is the mortality rate of CK. If the mortality rate of CK is less than 5%, without the required correction, and if the mortality rate of CK is between 5 and 20%, P2 should be calculated according to formula II.
# Nilaparvata lugens = assay: Insecticidal activity against Nilaparvata lugens (Potter spray tower); conditions: 24 h, read-out: Mortality rate (%) N. lugens
# Description: as §1
# Insecticidal activity against Nilaparvata lugens ([Ghareeb et al., 2021]). The seedlings with two leaves and one heart were placed in a Petri dish with a bottom diameter of 3 cm and covered with white sand. After the 3rd instar nymphae of N. lugens were stunned by CO2, about 15 nymphae were received in each dish, and then 2.5 ml of the tested agent was sprayed with Potter spray tower. The mortality of N. lugens was investigated 1 day after the treatment. Each treatment was repeated three times, and DMF without the tested compound was used as a blank control.
# as §2
# Plutella xylostella = assay: Insecticidal activity against Plutella xylostella (soaking method); conditions: for mortality at 100 µg/mL / mortality at 400 µg/mL / mortality at 25 µg/mL: Plutella xylostella, 48 h, read-out: Mortality rate (%) P. xylostella
# Description: as §1
# Insecticidal activity against Plutella xylostella ([Yang et al., 2021]). The soaking method was adopted. After soaking a proper amount of radish leaves for 10 s, it was placed in a plastic Petri dish with filter paper and dried naturally in the shade. Each dish was inoculated with 10 2nd instar P. xylostella larvae and placed in an observation room at 22°C with light (16/8 h). The result was counted 2 days later, and the no-response insect body when it was lightly touched with a brush was regarded as dead. Each treatment was repeated three times, and DMF without the tested compound was used as a blank control.
# as §2
# Chilo suppressalis = assay: Insecticidal activity against Chilo suppressalis (soaking method); conditions: 96 h, read-out: Mortality rate (%) C. suppressalis
# Description: as §1
# Insecticidal activity against Chilo suppressalis ([Huang et al., 2022]). The soaking method was adopted. The Zizania latifolia slices were soaked in a tested solution for 10 s, then taken out, and placed in a plastic Petri dish with filter paper to naturally dry in the shade. […] The result was counted 4 days later, and the no-response insect body when it was lightly touched with a brush was regarded as dead. Each treatment was repeated three times, and DMF without the tested compound was used as a blank control.
# as §2
# Helicoverpa armigera = assay: Insecticidal activity against Helicoverpa armigera (soaking method); conditions: for mortality at 400 µg/mL: Helicoverpa armigera, 48 h, read-out: Mortality rate (%) H. armigera
# Description: as §1
# Insecticidal activity against Helicoverpa armigera. The soaking method was adopted ([Yang et al., 2022]). After soaking a proper amount of corn leaves for 10 s, they were placed in a plastic Petri dish with filter paper and dried naturally in the shade. Ten larvae of the 2nd instar H. armigera were attached to each dish and placed in an observation room at 26°C with light (16/8 h). The result was counted 2 days later, and the no-response insect body when it was lightly touched with a brush was regarded as dead. Each treatment was repeated 3 times, and DMF without the tested compound was used as a blank control.
# as §2
# [1] = test system: honeybees (Apis mellifera); assay: Bee contact toxicity; conditions: for LD50 / Toxicity level / Mortality: Contact toxicity; for Mortality: 1 μL of 10 × 10^4 mg A.I./L per bee; for LD50 contact toxicity: adult bees, time not stated
# Protocol: (§3) The test bees were Italian bees (Apis mellifera), and the newly born adult worker bees (<24 h) were selected for drug drip treatment. Weigh 50 mg of test substance FLP and fully dissolve it in DMSO to obtain 10 × 10^4 mg A.I./L of stock liquid medicine; dissolve B4 fully in DMSO and fix the volume to a 1-ml volumetric flask to obtain 11.6 × 10^4 mg A.I./L stock solution.
# Contact toxicity. 10 × 10^4 mg A.I./L of mother liquor was used as the test liquid, and 1 μL of the solution containing the tested drug was dripped onto the back of the front chest of bees by a micro-dropper. Then, bees were put into a beekeeping box and cultured in dark conditions at a temperature of 30 ± 1°C and relative humidity of 50%, with a 50% sucrose solution as food for 48 h. Taking the solvent drip bees without the drug to be tested as the blank control, the treatment group and the control group were set up with three replicates, and 10 bees were used in each replicate.
# (§4) Statistical analysis. Using the statistical software SPSS16.0, the LD50 value and 95% confidence limit of the half lethal dose of the sample to bees were obtained by regression statistical analysis with the probit analysis method.
# [2] = test system: honeybees (Apis mellifera); assay: Bee acute oral toxicity; conditions: for LD50 / Mortality / Toxicity level: Oral toxicity; for LD50 oral toxicity: adult bees, time not stated
# Protocol: as §3
# Oral toxicity. Before the formal experiment, a pre-experiment was carried out. According to the formal experimental conditions, three to four dose groups were set at large intervals to observe the death of bees between 24 and 48 h and determine the linear range of the lethal effect of drugs on bees. According to the pre-test results, determine the concentration range of the formal test and set five to seven test dose groups. Starve bees for 2 h before being infected, and then eliminate bees that are dying or have abnormal behaviors; put 200 μL of test liquid medicine in the feeding tube, and after the liquid medicine is consumed (within 6 h), take out the feeder to measure the weight of the food that has not been consumed. Then, the bees were fed with sucrose solution without test samples. Cultivate in the dark. At the same time, feeding 50% sucrose solution as a blank control, the treatment group and the control group were set up with three replicates, and 20 bees were used in each replicate. According to the results of the pre-experiment, if the toxicity of the drug to bees is low, the upper limit dose of 100 μg a.i./bee is set for the limit test of bees, that is, when the tested substance reaches 100 μg a.i./bee, no bees die, so there is no need to continue the test. If the solubility of the test substance is less than 100 μg a. i./bee, the maximum solubility is adopted as the upper limit concentration. The test results were examined at 24 and 48 h, respectively, and the number of deaths and poisoning symptoms were recorded. The standard of death is touching the bee's body, and when it can't crawl, it is judged as death.
# as §4
# [3] = 400 μg/mL, 3rd instar nymphae, 1 day after treatment
# [4] = 100 μg/mL, 2nd instar larvae, counted 2 days later
# [5] = 400 μg/mL, 2nd instar larvae, counted 2 days later
# [6] = 400 μg/mL, 3rd instar larvae, counted 4 days later
# [7] = 100 μg/mL, 3rd instar nymphae, 1 day after treatment
# [8] = 25 μg/mL, 2nd instar larvae, counted 2 days later
SMILES,"mortality at 400 µg/mL (Aphis craccivora; 400 μg/mL, counted 24 h later)",mortality at 400 µg/mL (Nilaparvata lugens; [3]),mortality at 100 µg/mL (Plutella xylostella; [4]),mortality at 400 µg/mL (Plutella xylostella; [5]),mortality at 400 µg/mL (Chilo suppressalis; [6]),mortality at 400 µg/mL (Helicoverpa armigera; [5]),LD50 ([1]; 24 h),Toxicity level ([1]; 24 h),Mortality ([1]; 24 h),Toxicity level ([1]; 48 h),Mortality ([1]; 48 h),LD50 contact toxicity [1],LD50 oral toxicity [2],mortality at 100 µg/mL (Nilaparvata lugens; [7]),other results
"COCC(=O)/N=c1\ccccn1Cc1cnn(-c2ccc(Cl)cc2)c1C(F)(F)F [Compound B4, (E)-N-(1-((1-(4-chlorophenyl)-5-(trifluoromethyl)-1H-pyrazol-4-yl)methyl)pyridin-2(1H)-ylidene)-2-methoxyacetamide]",0%,0%,96.7%,100%,0%,0%,>11.0 μg a.i./bee,Low toxicity,3,Low toxicity,3,> 11.0 μg a.i./bee,> 11.0 μg a.i./bee,,LD50 ([1]; 48 h): >11.0 μg a.i./bee; LD50 ([2]; 24 h): >11.0 μg a.i./bee; Mortality ([2]; 24 h): 15; Toxicity level ([2]; 24 h): Low toxicity; LD50 ([2]; 48 h): >11.0 μg a.i./bee; Mortality ([2]; 48 h): 17; Toxicity level ([2]; 48 h): Low toxicity
"Cn1cc(C(=O)/N=c2\ccccn2Cc2cnn(-c3cccc(Cl)c3)c2C(F)F)c(C(F)F)n1 [Compound D6, (E)-N-(1-((1-(3-chlorophenyl)-5-(difluoromethyl)-1H-pyrazol-4-yl)methyl)pyridin-2(1H)-ylidene)-3-(difluoromethyl)-1-methyl-1H-pyrazole-4-carboxamide]",0%,100%,100%,100%,0%,0%,,,,,,,,0%,mortality at 25 µg/mL (Plutella xylostella; [8]): 56.7%
"Cn1cc(C(=O)/N=c2\ccccn2Cc2cnn(-c3ccc(F)cc3)c2C(F)F)c(C(F)F)n1 [Compound D7, (E)-3-(difluoromethyl)-N-(1-((5-(difluoromethyl)-1-(4-fluorophenyl)-1H-pyrazol-4-yl)methyl)pyridin-2(1H)-ylidene)-1-methyl-1H-pyrazole-4-carboxamide]",0%,100%,,73.3%,0%,0%,,,,,,,,0%,
"O=C(N=c1ccccn1Cc1ccc(Cl)nc1)C(F)(F)F [FLP, flupyrimin]",,,,,,,>11.0 μg a.i./bee,Low toxicity,12 and 9,Low toxicity,13 and 20,> 11.0 μg a.i./bee,> 11.0 μg a.i./bee,,mortality at 100 µg/mL (Aphis craccivora; 24 h): 100%; mortality at 400 µg/mL (Aphis craccivora; 24 h): 100%; mortality at 100 µg/mL (Nilaparvata lugens): 100%; mortality at 400 µg/mL (Nilaparvata lugens): 100%; Mortality rate (%) P. xylostella (Plutella xylostella; [8]): no insecticidal activity; mortality at 25 µg/mL (Plutella xylostella): 0%; mortality at 100 µg/mL (Plutella xylostella): 0%; mortality at 400 µg/mL (Plutella xylostella): 100%; mortality at 400 µg/mL (Chilo suppressalis): 100%; Mortality rate (%) H. armigera (Helicoverpa armigera; [5]): inactive; mortality at 400 µg/mL (Helicoverpa armigera): 0%
